Patent US11584714B2 (priority 2018, dated 2023)
Where a name gives a salt, the structure may show the parent alone. Read-outs that look alike come from different tables or passages of the source.

Experiments:
Assay type in all cases: biochemical
MASP-2 (CCP1-CCP2-SP) = MASP-2 (CCP1-CCP2-SP) (Homo sapiens (Human), UniProt O00187); assay: biochemical; conditions: for Ki: read-out: MASP-2 Ki
mMASP-2 = mMASP-2 (Mus musculus (Mouse), UniProt Q91WP0); assay: Enzymatic inhibition of mMASP-2
human α-thrombin = human α-thrombin (Homo sapiens (Human), UniProt P00734); assay: Enzymatic assay for thrombin (Boc-VPR-AMC substrate)
Lectin Pathway = assay: Lectin pathway activation assay in human serum (mannan-coated ELISA, C3c detection); conditions: 1% human serum
[1] = selectivity for MASP-2 inhibition versus thrombin

mMASP-2, sequence (Q91WP0 20-685): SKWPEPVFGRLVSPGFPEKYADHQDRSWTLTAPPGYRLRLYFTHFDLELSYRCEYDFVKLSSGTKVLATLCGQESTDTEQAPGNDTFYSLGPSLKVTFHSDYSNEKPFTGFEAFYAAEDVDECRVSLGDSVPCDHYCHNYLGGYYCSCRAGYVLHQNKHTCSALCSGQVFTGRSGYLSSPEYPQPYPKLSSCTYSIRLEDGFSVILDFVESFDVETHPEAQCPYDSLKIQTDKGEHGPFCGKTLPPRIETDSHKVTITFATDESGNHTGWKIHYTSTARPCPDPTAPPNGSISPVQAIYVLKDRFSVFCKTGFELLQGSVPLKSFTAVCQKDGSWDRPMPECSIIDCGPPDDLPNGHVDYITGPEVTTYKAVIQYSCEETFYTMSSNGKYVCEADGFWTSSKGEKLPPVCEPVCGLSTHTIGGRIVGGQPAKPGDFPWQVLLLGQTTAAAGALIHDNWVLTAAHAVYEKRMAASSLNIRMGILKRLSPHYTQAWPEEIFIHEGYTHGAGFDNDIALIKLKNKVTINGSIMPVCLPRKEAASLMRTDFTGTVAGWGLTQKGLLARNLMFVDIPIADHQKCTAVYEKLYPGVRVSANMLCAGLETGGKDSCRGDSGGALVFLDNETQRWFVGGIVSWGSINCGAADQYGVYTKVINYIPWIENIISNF
MASP-2 (CCP1-CCP2-SP), sequence (O00187 445-686): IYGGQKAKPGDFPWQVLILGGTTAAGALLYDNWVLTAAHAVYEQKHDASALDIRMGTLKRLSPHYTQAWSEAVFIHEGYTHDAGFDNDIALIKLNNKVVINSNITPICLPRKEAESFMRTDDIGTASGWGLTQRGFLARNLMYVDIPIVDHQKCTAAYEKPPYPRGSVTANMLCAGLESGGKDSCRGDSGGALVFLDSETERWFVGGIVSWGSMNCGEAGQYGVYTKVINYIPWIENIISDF

Compound	Ki (MASP-2 (CCP1-CCP2-SP))	MASP-2 vs. thrombin selectivity (MASP-2 (CCP1-CCP2-SP); [1])	Ki (mMASP-2; read-out: mMASP-2 Ki)	Ki (human α-thrombin; Thrombin Ki (μM))	IC50 (Lectin Pathway)	Ki (human α-thrombin; read-out: Thrombin Ki)	Ki (mMASP-2)	MASP-2 vs. thrombin selectivity (MASP-2 (CCP1-CCP2-SP); MASP-2 inhibition versus thrombin)
Cc1cc(Cl)cc(CNC(=O)[C@H](C)NC(=O)[C@H]2C[C@@H](Cc3ccccc3)CCN2)c1O [compound 1363, (2R,4S)-4-Benzyl-N-((S)-1-((5-chloro-2-hydroxy-3-methylbenzyl)amino)-1-oxopropan-2-yl)piperidine-2-carboxamide Hydrochloride]	< 500 nM	**** (≥100-fold)	< 500 nM	2.5 to 10 µM	50 to 500 nM	–	–	–
Cc1cc(Cl)cc(CNC(=O)[C@H](C)NC(=O)[C@H]2C[C@H](Cc3ccc(Cl)s3)CN2)c1O [compound 1456, (2R,4R)—N—((S)-1-((5-Chloro-2-hydroxy-3-methylbenzyl)amino)-1-oxopropan-2-yl)-4-((5-chlorothiophen-2-yl)methyl)pyrrolidine-2-carboxamide Dihydrochloride]	< 500 nM	–	500 to 2500 nM	–	5000 to 50000 nM	> 25 µM	–	–
Cc1cc(Cl)cc(CNC(=O)[C@H](C)NC(=O)[C@H]2C[C@H](Cc3ccc4ccccc4c3)CN2)c1O [compound 1370, (2R,4S)—N—((S)-1-((5-Chloro-2-hydroxy-3-methylbenzyl)amino)-1-oxopropan-2-yl)-4-(naphthalen-2-ylmethyl)pyrrolidine-2-carboxamide]	< 500 nM	–	–	–	50 to 500 nM	> 25 µM	500 to 2500 nM	–
C[C@H](NC(=O)[C@H](N)CCc1ccccc1)C(=O)NCc1ccc2c(N)ncnc2c1 [compound 1060, (R)-2-Amino-N—((S)-1-(((4-aminoquinazolin-7-yl)methyl)amino)-1-oxopropan-2-yl)-4-phenylbutanamide Dihydrochloride]	–	–	> 25000 nM	–	> 50000 nM	> 25 µM	–	*** (25 to 100-fold)
Cc1ccccc1CN1CCN[C@@H](C(=O)N[C@@H](C)C(=O)NCc2ccc(N)nc2C)C1 [compound 1348, (R)—N—((S)-1-(((6-Amino-2-methylpyridin-3-yl)methyl)amino)-1-oxopropan-2-yl)-4-(2-methylbenzyl)piperazine-2-carboxamide Dihydrochloride]	< 500 nM	*** (≥25 to <100-fold)	< 500 nM	–	< 50 nM	< 0.5 µM	–	–
Cc1nc(N)ccc1CNC(=O)[C@H](C)NC(=O)[C@H]1CN(Cc2ccccc2)CCN1 [compound 1347, (R)—N—((S)-1-(((6-Amino-2-methylpyridin-3-yl)methyl)amino)-1-oxopropan-2-yl)-4-benzylpiperazine-2-carboxamide Dihydrochloride]	< 500 nM	*** (≥25 to <100-fold)	< 500 nM	0.5 to 2.5 µM	< 50 nM	–	–	–
Cc1nc(N)ccc1CNC(=O)[C@H](C)NC(=O)[C@H]1C[C@@H](c2ccccc2)CCN1C [compound 1441, (2R,4S)—N—((S)-1-(((6-Amino-2-methylpyridin-3-yl)methyl)amino)-1-oxopropan-2-yl)-1-methyl-4-phenylpiperidine-2-carboxamide]	< 500 nM	–	< 500 nM	–	50 to 500 nM	> 25 µM	–	–
Cc1nc(N)ccc1CNC(=O)[C@H](C)NC(=O)[C@H]1C[C@@H](Cc2ccccc2)CCN1 [compound 1353, (2R,4S)—N—((S)-1-(((6-Amino-2-methylpyridin-3-yl)methyl)amino)-1-oxopropan-2-yl)-4-benzylpiperidine-2-carboxamide Dihydrochloride]	< 500 nM	*** (≥25 to <100-fold)	< 500 nM	–	< 50 nM	< 0.5 µM	–	–
Cc1nc(N)ccc1CNC(=O)[C@H](C)NC(=O)[C@H]1C[C@H](Cc2ccc3nsnc3c2)CN1 [compound 1449, (2R,4S)—N—((S)-1-(((6-Amino-2-methylpyridin-3-yl)methyl)amino)-1-oxopropan-2-yl)-4-(benzo[c][1,2,5]thiadiazol-5-ylmethyl)pyrrolidine-2-carboxamide Di-trifluoroacetate salt]	< 500 nM	**** (≥100-fold)	< 500 nM	2.5 to 10 µM	500 to 5000 nM	–	–	–
Cc1nc(N)ccc1CNC(=O)[C@H](C)NC(=O)[C@H]1Cc2c([nH]c3ccccc23)CN1 [compound 1389, (R)—N—((S)-1-(((6-Amino-2-methylpyridin-3-yl)methyl)amino)-1-oxopropan-2-yl)-2,3,4,9-tetrahydro-1H-pyrido[3,4-b]indole-3-carboxamide Hydrochloride]	< 500 nM	**** (≥100-fold)	2500 to 10000 nM	–	500 to 5000 nM	> 25 µM	–	–
Cc1nc(N)ccc1CNC(=O)[C@H](C)NC(=O)[C@H]1Cc2c(sc3ccccc23)CN1 [compound 1400, (R)—N—((S)-1-(((6-Amino-2-methylpyridin-3-yl)methyl)amino)-1-oxopropan-2-yl)-1,2,3,4-tetrahydrobenzo[4,5]thieno[2,3-c]pyridine-3-carboxamide Hydrochloride]	< 500 nM	–	2500 to 10000 nM	–	500 to 5000 nM	> 25 µM	–	–
Cc1nc(N)ccc1CNC(=O)[C@H](C)NC(=O)[C@H]1C[C@H](Cc2ccc(-c3nccs3)cc2)CN1 [compound 1361, (2R,4S)—N—((S)-1-(((6-Amino-2-methylpyridin-3-yl)methyl)amino)-1-oxopropan-2-yl)-4-(4-(thiazol-2-yl)benzyl)pyrrolidine-2-carboxamide Di-trifluoroacetate salt]	< 500 nM	**** (≥100-fold)	< 500 nM	–	< 50 nM	> 25 µM	–	–
Cc1nc(N)ccc1CNC(=O)[C@H](C)NC(=O)[C@H]1C[C@H](Oc2ccc(Br)cc2)CN1 [compound 1445, (2R,4S)—N—((S)-1-(((6-Amino-2-methylpyridin-3-yl)methyl)amino)-1-oxopropan-2-yl)-4-(4-bromophenoxy)pyrrolidine-2-carboxamide Dihydrochloride]	< 500 nM	**** (≥100-fold)	500 to 2500 nM	–	5000 to 50000 nM	> 25 µM	–	–
Cc1nc(N)ccc1CNC(=O)[C@H](C)NC(=O)[C@H]1C[C@H](Cc2ccccc2Br)CN1 [compound 1372, (2R,4S)—N—((S)-1-(((6-Amino-2-methylpyridin-3-yl)methyl)amino)-1-oxopropan-2-yl)-4-(2-bromobenzyl)pyrrolidine-2-carboxamide Di-trifluoroacetate salt]	< 500 nM	** (≥5.0 to <25-fold)	< 500 nM	–	50 to 500 nM	< 0.5 µM	–	–
Cc1cc(C)cc(C[C@@H]2CN[C@@H](C(=O)N[C@@H](C)C(=O)NCc3cc(Cl)ccc3-n3cnnn3)C2)c1 [compound 1416, (2R,4S)—N—((S)-1-((5-Chloro-2-(1H-tetrazol-1-yl)benzyl)amino)-1-oxopropan-2-yl)-4-(3,5-dimethylbenzyl)pyrrolidine-2-carboxamide Hydrochloride]	< 500 nM	** (≥5.0 to <25-fold)	< 500 nM	–	50 to 500 nM	< 0.5 µM	–	–
